Data as given in the supplement of paper PMC10307832.

Experiments:
Assay in all cases: relative viability (nuclei count vs DMSO), 5 days (fraction); higher = more cells survive
[1] = compound: Cc1ccc(Nc2nccc(N(C)c3ccc4c(C)n(C)nc4c3)n2)cc1S(N)(=O)=O [Pazopanib] + CS(=O)(=O)N1CCN(Cc2cc3nc(-c4cccc5[nH]ncc45)nc(N4CCOCC4)c3s2)CC1 [Pictilisib] (partner 1 µM)
How it was run: (§1)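 Dosing by pin tool came one day after lung cancer cell lines were seeded in 1536-well plates, using either one drug or a fixed anchor-drug dose plus five library-drug doses (not always all listed) in √10 steps. After 5 days, nuclei were counted on 4× images. Relative viability is treated-well nuclei count divided by vehicle-well nuclei count, and values are medians of duplicate plates.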

[2] = compound: Cc1ccc(Nc2nccc(N(C)c3ccc4c(C)n(C)nc4c3)n2)cc1S(N)(=O)=O [Pazopanib] + Cc1nc(Nc2ncc(C(=O)Nc3c(C)cccc3Cl)s2)cc(N2CCN(CCO)CC2)n1 [Dasatinib] (partner 0.075 µM)
How it was run: as §1

[3] = compound: Cc1ccc(C(=O)Nc2ccc(CN3CCN(C)CC3)c(C(F)(F)F)c2)cc1C#Cc1cnc2cccnn12 [Ponatinib] + CC(=O)c1c(C)c2cnc(Nc3ccc(N4CCNCC4)cn3)nc2n(C2CCCC2)c1=O [Palbociclib] (partner 0.5 µM)
How it was run: as §1

[4] = compound: Cc1ccc(Nc2nccc(N(C)c3ccc4c(C)n(C)nc4c3)n2)cc1S(N)(=O)=O [Pazopanib] + CC1(C)CCC(c2ccc(Cl)cc2)=C(CN2CCN(c3ccc(C(=O)NS(=O)(=O)c4ccc(N[C@H](CCN5CCOCC5)CSc5ccccc5)c(S(=O)(=O)C(F)(F)F)c4)cc3)CC2)C1 [Navitoclax] (partner 0.5 µM)
How it was run: as §1

UMC-11
relative viability ([1]; first compound 0.01 µM): 0.724
relative viability ([1]; first compound 0.03162 µM): 0.879
relative viability ([1]; first compound 0.1 µM): 0.787
relative viability ([1]; first compound 0.3162 µM): 0.928
relative viability ([1]; first compound 1 µM): 1.13
relative viability ([2]; first compound 0.01 µM): 0.455
relative viability ([2]; first compound 0.03162 µM): 0.459
relative viability ([2]; first compound 0.1 µM): 0.568
relative viability ([2]; first compound 0.3162 µM): 0.467
relative viability ([2]; first compound 1 µM): 0.432
relative viability ([3]; first compound 0.006325 µM): 0.312
relative viability ([3]; first compound 0.06325 µM): 0.287
relative viability ([3]; first compound 0.2 µM): 0.346
relative viability ([4]; first compound 0.01 µM): 0.318
relative viability ([4]; first compound 0.03162 µM): 0.312
relative viability ([4]; first compound 0.1 µM): 0.303
relative viability ([4]; first compound 0.3162 µM): 0.268
relative viability ([4]; first compound 1 µM): 0.348
